Like-named read-outs stand apart in the source and are kept apart here.

For data set [1], the system named is paresthesias. The data set can be described thus: Anecdotal case studies: potassium supplementation in patients with persistent paresthesias. Format: in vivo, human.
The subject of data set [2] is paresthesias. The data set can be described thus: Single-patient case reports: potassium chloride given to patients with paresthesias while taking topiramate. Format: in vivo, human. Conditions: potassium chloride 20 mEq/day. As to the method: The patient was a person who had cluster headaches. The patient was taking topiramate at 150 mg/day. They complained of paresthesias. The patient was given potassium chloride at 20 mEq/day.
The patient was a person who had migraine headaches and who was taking topiramate at 150 mg/day. They complained of paresthesias and was given potassium chloride at 20 mEq/day.
The patient was a person who had migraine headaches and was taking topiramate at 200 mg/day. They complained of paresthesias and was given potassium chloride at 20 mEq/day.
The patient was a person who had migraine headaches and was taking topiramate at 125 mg/day. They complained of paresthesias and was given potassium chloride at 20 mEq/day.
The patient was a person who had migraine headaches and was taking topiramate at 50 mg/day. They complained of paresthesias and was given potassium chloride at 20 mEq/day.

Data set [3] deals with paresthesia. Conditions: intravenous potassium chloride in combination with spirocolactone; patient with hypokalemia and painful leg paresthesia; cited from earlier work.
For data set [4] the following is noted: infusion into an epidural catheter; cited from earlier work.
The test system of data set [5] is simple and complex partial seizures and secondarily generalized seizures. Conditions: adjunctive therapy or monotherapy; human epilepsy; cited from earlier work.
Data set [6] has as its system seizures. Conditions: several rodent models of epilepsy; cited from earlier work.
Data set [7] has as its system seizures. Conditions: animal model of kindled epilepsy; cited from earlier work.
For data set [8] the following is noted: cited from earlier work.

For `[Cl-].[K+]` [potassium chloride], the “effect on persistent paresthesias” value in data set [1] (patients complaining of persistent paresthesias, 20-40 meq/day potassium chloride) is given as “control of the paresthesias”. Besides, the “effect on paresthesias and severity” value in data set [1] (potassium chloride and food (orange juice and bananas) supplementation) is “effective in decreasing paresthesias and its severity”. Further, the paresthesias outcome in data set [2] (Example 3: person, cluster headaches, topiramate 150 mg/day, within 9 days) is “paresthesias had abated”; in data set [2] (Example 4: person, migraine, topiramate 150 mg/day, after about one month) it was “paresthesias had abated”; in data set [2] (Example 5: person, migraine, topiramate 200 mg/day, after about two months), “paresthesias had abated”; in data set [2] (Example 6: person, migraine, topiramate 125 mg/day, after about one month), “paresthesias had abated”; in data set [2] (Example 7: person, migraine, topiramate 50 mg/day, after one month), “paresthesias had abated”. Besides, in data set [3], the outcome of treatment was “stabilization of serum potassium, disappearance of paresthesia and normalization of muscle function and ECG”. The “effect of inadvertent epidural infusion” value in data set [4] is listed as “paresis (slight paralysis or weakness of a limb) and/or painful paraesthesias in the patient's extremities”.

Turning to `CC1(C)O[C@@H]2[C@@H](CO[C@@]3(COS(N)(=O)=O)OC(C)(C)O[C@@H]23)O1` [topiramate, 2,3:4,5-bis-O-(1-methylethylidene)-β-D-fructopyranose sulfamate], in data set [5], the “efficacy in treating seizures” value was “effective as adjunctive therapy or as monotherapy”. The seizure block result in data set [6] and in data set [7] was “effectively block seizures” in each case. Further, the “adverse event or side effect” value in data set [8] (patients treated for epilepsy, migraine headaches, bipolar disorder) is “paresthesia”. Also, the “severity of the paresthesia” value in data set [8] (patients treated with topiramate) is “mild to severe”.

The record behind these values is patent US20030092636A1, “Treatment and prevention of paresthesia comprising co-therapy with anticonvulsant derivatives and potassium” (priority 2001, published 2003).
